Experimental data: the supplement of paper PMC10307832

How the values were obtained:
Experiment in all cases: relative viability (nuclei count vs DMSO), 5 days (fraction); higher = more cells survive
[1] = compound: CC1=C(N=C(N=C1N)[C@H](CC(=O)N)NC[C@@H](C(=O)N)N)C(=O)N[C@@H]([C@H](C2=CN=CN2)OC3C(C(C(C(O3)CO)O)O)OC4C(C(C(C(O4)CO)O)OC(=O)N)O)C(=O)N[C@H](C)[C@H]([C@H](C)C(=O)N[C@@H]([C@@H](C)O)C(=O)NCCC5=NC(=CS5)C6=NC(=CS6)C(=O)NCCC[S+](C)C)O [Bleomycin] + CC(C)C[C@H](NC(=O)[C@H](Cc1ccccc1)NC(=O)c1cnccn1)B(O)O [Bortezomib] (partner 0.002 µM); details: main component drawn
Summary of the method: (§1)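 Cells from lung cancer lines were seeded into 1536-well plates and, one day later, dosed by pin tool. Treatments were either a single drug or a fixed dose of an anchor drug with five library-drug doses (not always all listed) in √10 steps. After 5 days, nuclei were stained in a one-step fixation (final 0.05% Triton X-100, 1% formaldehyde, 1 ug/ml Hoechst) and counted on 4× images, and relative viability is the treated-to-vehicle nuclei ratio, as the median of duplicate plates.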

[2] = compound: CC1=C(N=C(N=C1N)[C@H](CC(=O)N)NC[C@@H](C(=O)N)N)C(=O)N[C@@H]([C@H](C2=CN=CN2)OC3C(C(C(C(O3)CO)O)O)OC4C(C(C(C(O4)CO)O)OC(=O)N)O)C(=O)N[C@H](C)[C@H]([C@H](C)C(=O)N[C@@H]([C@@H](C)O)C(=O)NCCC5=NC(=CS5)C6=NC(=CS6)C(=O)NCCC[S+](C)C)O [Bleomycin] + Cc1nc(Nc2ncc(C(=O)Nc3c(C)cccc3Cl)s2)cc(N2CCN(CCO)CC2)n1 [Dasatinib] (partner 0.075 µM); details: main component drawn
Summary of the method: as §1

[3] = compound: COc1cc([C@@H]2c3cc4c(cc3[C@@H](O[C@@H]3O[C@@H]5CO[C@@H](C)O[C@H]5[C@H](O)[C@H]3O)[C@H]3COC(=O)[C@H]23)OCO4)cc(OC)c1O [Etoposide] + CC(=O)Nc1cccc(-n2c(=O)n(C3CC3)c(=O)c3c(Nc4ccc(I)cc4F)n(C)c(=O)c(C)c32)c1 [Trametinib] (partner 0.02 µM)
Summary of the method: as §1

[4] = compound: COc1cc([C@@H]2c3cc4c(cc3[C@@H](O[C@@H]3O[C@@H]5CO[C@@H](C)O[C@H]5[C@H](O)[C@H]3O)[C@H]3COC(=O)[C@H]23)OCO4)cc(OC)c1O [Etoposide] + COc1cc2c(Oc3ccc(NC(=O)C4(C(=O)Nc5ccc(F)cc5)CC4)cc3F)ccnc2cc1OCCCN1CCOCC1 [Foretinib] (partner 0.25 µM)
Summary of the method: as §1

Cell Line	relative viability ([1]; first compound 0.01 µM)	relative viability ([1]; first compound 0.03162 µM)	relative viability ([1]; first compound 0.1 µM)	relative viability ([1]; first compound 0.3162 µM)	relative viability ([1]; first compound 1 µM)	relative viability ([2]; first compound 0.01 µM)	relative viability ([2]; first compound 0.03162 µM)	relative viability ([2]; first compound 0.1 µM)	relative viability ([2]; first compound 0.3162 µM)	relative viability ([2]; first compound 1 µM)	relative viability ([3]; first compound 0.01 µM)	relative viability ([3]; first compound 0.03162 µM)	relative viability ([3]; first compound 0.1 µM)	relative viability ([3]; first compound 0.3162 µM)	relative viability ([3]; first compound 1 µM)	relative viability ([4]; first compound 0.01 µM)	relative viability ([4]; first compound 0.03162 µM)	relative viability ([4]; first compound 0.1 µM)	relative viability ([4]; first compound 0.3162 µM)	relative viability ([4]; first compound 1 µM)
NCI-H322M	1.07	1.13	1.36	0.708	0.592	0.241	0.26	0.262	0.243	0.263	0.531	0.564	0.469	0.457	0.47	0.813	1	0.831	0.864	0.483
NCI-H2087	0.6	0.785	0.645	0.133	0.176		0.852	0.668	0.131	0.13	0.206	0.213	0.173	0.2	0.147	1.04	1.11	0.859	0.46	0.221
COR-L23	0.669	0.774	0.355	0.136	0.102	0.394	0.276	0.215	0.0981	0.0987	0.578	0.666	0.348	0.488	0.233	0.954	1.14	1	0.744	0.33
NCI-H2126	1.06	1.08	1.08	0.7	0.947	0.596	0.619	0.665	0.357	0.276	0.539	0.683	0.427	0.455	0.312	1.05	1.08		0.712	0.394
LC-2-ad	0.943	0.624	0.316	0.127	0.0954	0.312	0.373	0.318	0.183	0.145	0.884	0.902	0.988	0.743	0.689	0.898	0.896	0.696	0.424	0.308
NCI-H1915	0.645	0.823	0.384	0.179	0.136	0.247	0.258	0.181	0.0914	0.0984	0.275	0.343	0.253	0.262	0.282	1.06	1.18	1.16	0.986	0.877
NCI-H2023	0.61	0.772	0.548	0.205	0.11	0.345	0.316	0.302	0.163	0.129	0.448	0.647	0.559	0.452	0.186	0.987	0.886	0.814	0.352	0.218
COR-L 105	0.711	0.594	0.549	0.337	0.292	0.325	0.35	0.307	0.238	0.215	0.443	0.479	0.439	0.437	0.398	0.926	1.3	1.02	1.02	0.645
SK-LU-1	0.939	1.04	0.915	0.293	0.274	0.169	0.166	0.173	0.144	0.104	0.446	0.411	0.394	0.258	0.236	0.765	0.701	0.484	0.329	0.18
LXF-289	0.861	0.944	0.775	0.27	0.135	0.19	0.228	0.197	0.077	0.0555	0.742	0.705	0.71	0.531	0.2	0.973	0.971	1.02	0.611	0.327
PC-3 [JPC-3]	0.748	0.926	0.791	0.446	0.448	0.881	1.09	0.986	0.72	0.618	0.693	0.756	0.633	0.749	0.671	0.947	1.06	1.06	0.906	0.897
NCI-H661	0.838	0.603	0.484	0.228	0.251	0.741	0.657	0.623	0.262	0.242	0.567	0.639	0.398	0.51	0.388	0.982	1.06	0.889	0.845	0.53
NCI-H1666	0.622	0.427	0.434	0.31	0.261	0.658	0.521	0.565	0.374	0.317	0.818	0.89	0.809	0.526	0.508	0.962	0.919	0.695	0.42	0.461
NCI-H2085	0.768	0.875	0.707	0.377	0.366	0.262	0.221	0.231	0.212	0.209	0.484	0.643	0.423	0.266	0.271	0.781	0.897	0.88	0.667	0.33
NCI-H1734	0.732	0.664	0.725	0.239	0.226	0.357	0.312	0.348	0.145	0.154	0.655	0.74	0.499	0.461	0.452	0.776	0.923	0.701	0.602	0.369
NCI-H2228	1.14	1.02	0.721	0.558	0.293	0.45	0.495	0.618	0.342	0.172	0.485	0.576	0.32	0.279	0.168	0.803	1.04	0.812	0.519	0.204
EMC-BAC-2	0.927	0.92	0.868	0.319	0.279	0.293	0.277	0.259	0.144	0.115	0.818	0.774	0.531	0.364	0.308	0.918	1.05	0.612	0.302	0.238
NCI-H1993	1.2	1.06	0.95	0.539	0.548	0.548	0.604	0.597	0.462	0.464		0.619	0.441	0.481	0.444	0.788	0.906	0.557	0.733	0.51
NCI-H596	0.662	0.686	0.637	0.402	0.521	0.548	0.531	0.395	0.24	0.221	0.7	0.965	0.772	0.727	0.646	0.748	0.833	1.04	0.799	0.596
NCI-H650	0.548	0.697	0.569	0.259	0.214	0.389	0.438	0.432	0.289	0.212	0.884	0.951	0.681	0.527	0.195	0.961	0.913	0.682	0.606	0.288
SW 1573	0.7	0.812	0.719	0.305	0.26	0.253	0.289	0.434	0.174	0.118	0.609	0.548	0.436	0.219	0.14	0.873	0.931	0.475	0.537	0.278
ChaGo-K-1		1.01	0.768	0.393	0.306	0.529	0.552	0.533	0.246	0.264	0.881	0.905	0.752	0.394	0.248	0.781	0.978	0.8	0.281	0.21
NCI-H1650	0.2	0.216	0.194	0.167	0.172	0.263	0.281	0.145	0.124	0.128	0.459	0.541	0.458	0.257	0.143	0.981	1.09	0.9	0.431	0.281
NCI-H2009	0.852	0.98	1.01	0.358	0.441	0.298	0.297	0.311	0.21	0.196	0.239	0.286	0.168	0.246	0.216	1.17	1.24	1.17	0.835	0.694
LOU-NH91	0.493	0.439	0.355	0.335	0.348	0.562	0.391	0.448	0.306	0.251	0.731	0.817	0.659	0.758	0.552	0.919	0.949	0.745	0.795	0.406
NCI-H3122	0.999	0.976	0.957	0.698	0.428	0.833	0.999	0.749	0.366	0.206	0.23	0.223	0.153	0.23	0.215	0.972	0.975	0.962	0.682	0.449
LCLC-97TM1	0.173	0.17	0.0959	0.077	0.0823	0.553	0.576	0.619	0.208	0.123	0.22	0.218	0.174	0.126	0.115	0.87	0.988	0.732	0.341	0.173
NCI-H647	0.39	0.299	0.223	0.118	0.0632	0.101	0.0923	0.0574	0.039	0.0343	0.309	0.546	0.351	0.405	0.134	1.02	1.25	1.21	0.654	0.271
NCI-H838	0.67	0.204	0.23	0.0877	0.152	0.267	0.265	0.243	0.153	0.175	0.463	0.502	0.378	0.406	0.253	0.981	1.03	1.01	0.841	0.35
